In one assay the test system is S. aureus HH 127. The assay can be described thus: in vitro MIC testing, S. aureus HH 127. It is filed as cell-based. The protocol:
(§1) The compounds of Formula I have exceptional antibacterial activity against both Gram-positive and Gram-negative organisms. Minimum inhibitory concentrations (MIC's) range from 0.2 to >200 μg/ml in in vitro testing. Test results for the compound 7β-D-mandelamido-3-[1-(2-methanesulfonamidoethyl)tetrazol-5-ylthiomethyl]-3-cephem-4-carboxylic acid sodium salt hydrate (Compound A) are given below: […]

Another assay deals with S. aureus SK 23390. Description: in vitro MIC testing, S. aureus SK 23390. Type of assay: cell-based. As for the experimental part: as §1
The next assay has as its system Strep. faecalis HH 34358. Description: in vitro MIC testing, Strep. faecalis HH 34358. It is filed as cell-based. As for the experimental part: as §1
The next assay has as its system E. coli SK 12140. Description: in vitro MIC testing, E. coli SK 12140. It is filed as cell-based. The note with it: Escherichia coli, SK12140. The protocol:
as §1

A further assay concerns E. coli HH 33779. The assay can be described thus: in vitro MIC testing, E. coli HH 33779. Type of assay: cell-based. As for the experimental part:
as §1

Another assay relates to Kleb. pneumo. SK 4200. Description: in vitro MIC testing, Kleb. pneumo. SK 4200. It is filed as cell-based. As for the experimental part:
as §1

The next assay relates to Kleb. pneumo. SK 1200. Description: in vitro MIC testing, Kleb. pneumo. SK 1200. It is filed as cell-based. As for the experimental part: as §1
Another assay relates to Salmonella ATCC 12176. Description: in vitro MIC testing, Salmonella ATCC 12176. It is filed as cell-based. The note with it: ATCC12176, two values given. As for the experimental part: as §1
The next assay has as its system Shigella HH 117. The assay can be described thus: in vitro MIC testing, Shigella HH 117. The note with it: HH117. It is filed as cell-based. The protocol: as §1
In the next assay the test system is Pseudo. aerug. HH 63. The assay can be described thus: in vitro MIC testing, Pseudo. aerug. HH 63. It is filed as cell-based. As for the experimental part: as §1
In assay [1] the test system is Serratia marc. ATCC 13880. The assay can be described thus: in vitro MIC testing, Serratia marc. ATCC 13880. Type of assay: cell-based. Conditions: ATCC13880, two values given. As for the experimental part: as §1
The subject of the next assay is Proteus morgani 179. Description: in vitro MIC testing, Proteus morgani 179. The note with it: two values given. Type of assay: cell-based. The protocol:
as §1

For the next assay, the system named is Entero aerog. ATCC 13048. The assay can be described thus: in vitro MIC testing, Entero aerog. ATCC 13048. It is filed as cell-based. The note with it: two values given. As for the experimental part: as §1
Another assay has as its system Entero. cloacae HH 31254. Description: in vitro MIC testing, Entero. cloacae HH 31254. It is filed as cell-based. The note with it: Enterobacter cloacae, HH31254. The protocol:
as §1

The subject of another assay is Proteus mirabilis 444. Description: in vitro MIC testing, Proteus mirabilis 444. Type of assay: cell-based. The protocol: as §1
In another assay the test system is E. coli 12140. Description: in vivo mouse protection test, E. coli 12140. As for the experimental part:
(§2) 4200 upon subcutaneous injection; cefazolin gave results of 4 mg/kg against E. coli 12140 and 11.3 mg/kg against Kleb. pneumo. 4200 upon subcutaneous administration.

The next assay deals with Kleb. pneumo. 4200. Description: in vivo mouse protection test, Kleb. pneumo. 4200. Conditions: sc. The protocol:
as §2

[2] abbreviates: two values given, sodium salt hydrate.

≈ marks a conversion by molar mass, not a printed value. Read-outs that look alike come from different tables or passages of the source.

One may read the MIC as the smallest concentration in the dilution series that meets the test's criterion for growth inhibition. For orientation: ED50 means the midpoint of the dose-response relation. Take `Cc1nnc(SCC2=C(C(=O)O)N3C(=O)[C@@H](NC(=O)Cn4cnnn4)[C@H]3SC2)s1` [Cefazolin, reference compound]: the MIC in the assay on S. aureus HH 127 (Staphylococcus aureus, HH127, two values given, read-out: MIC) was 0.4 µg/mL (≈ 0.88 µM); in the assay on S. aureus SK 23390 (Staphylococcus aureus, SK23390, two values given, read-out: MIC) it was 0.2 µg/mL (≈ 0.44 µM); with Strep. faecalis HH 34358 (Enterococcus faecalis, HH34358, two values given, read-out: MIC), 6.3 µg/mL (≈ 13.9 µM); with E. coli SK 12140 (E. coli SK 12140, two values given, read-out: MIC), 0.8 µg/mL (≈ 1.76 µM); in the assay with E. coli HH 33779 (Escherichia coli, HH33779, two values given, read-out: MIC), 1.6 µg/mL (≈ 3.52 µM); with Kleb. pneumo. SK 4200 (Kleb. pneumo. SK 4200, two values given, read-out: MIC), 1.6 µg/mL (≈ 3.52 µM). In addition, the MIC in the assay with Kleb. pneumo. SK 1200 (Kleb. pneumo. SK 1200, two values given, read-out: MIC) was 0.8 µg/mL (≈ 1.76 µM); with Salmonella ATCC 12176, 0.8 µg/mL (≈ 1.76 µM); against Shigella HH 117, 0.4 µg/mL (≈ 0.88 µM); with Pseudo. aerug. HH 63 (Pseudo. aerug. HH 63, two values given, read-out: MIC) it was > 200 µg/mL; in assay [1], > 200 µg/mL; with Proteus morgani 179 (read-out: MIC), 200 µg/mL (≈ 440 µM). Also, the MIC with Entero aerog. ATCC 13048 (read-out: MIC) was 1.6 µg/mL (≈ 3.52 µM); in the assay on Entero. cloacae HH 31254 (Entero. cloacae HH 31254, two values given, read-out: MIC), 0.8 µg/mL (≈ 1.76 µM); in the assay with Proteus mirabilis 444 (read-out: MIC) it was 3.1 µg/mL (≈ 6.82 µM). Besides, the ED50 is 4 mg/kg with E. coli 12140 (Escherichia coli, sc, mouse protection, E. coli 12140, subcutaneous, read-out: ED50) and 11.3 mg/kg with Kleb. pneumo. 4200 (mouse protection, Kleb. pneumo. 4200, subcutaneous, read-out: ED50).
For `CS(=O)(=O)NCCn1nnnc1SCC1=C(C(=O)[O-])N2C(=O)[C@@H](NC(=O)[C@H](O)c3ccccc3)[C@H]2SC1.O.[Na+]` [Compound A, 7β-D-mandelamido-3-[1-(2-methanesulfonamidoethyl)tetrazol-5-ylthiomethyl]-3-cephem-4-carboxylic acid sodium salt hydrate], the MIC against S. aureus HH 127 (Staphylococcus aureus, HH127, two values given) was 3.1 µg/mL; in the assay on S. aureus HH 127 (setting [2]), 1.6 µg/mL; against S. aureus SK 23390 (Staphylococcus aureus, SK23390, two values given) it was 0.8 µg/mL; with S. aureus SK 23390 (setting [2]), 0.4 µg/mL; against Strep. faecalis HH 34358 (Enterococcus faecalis, HH34358, two values given), 25 µg/mL; in the assay on Strep. faecalis HH 34358 (setting [2]) it was 12.5 µg/mL. For the same compound, the MIC is 0.8 µg/mL in the assay on E. coli SK 12140; 1.6 µg/mL in the assay on E. coli HH 33779 (Escherichia coli, HH33779, two values given); 0.8 µg/mL with E. coli HH 33779 (setting [2]); 0.4 µg/mL against Kleb. pneumo. SK 4200; 0.4 µg/mL in the assay on Kleb. pneumo. SK 1200; 0.4 µg/mL with Salmonella ATCC 12176. Moreover, the MIC is 0.2 µg/mL in the assay with Shigella HH 117; > 200 µg/mL against Pseudo. aerug. HH 63; 1.6 µg/mL against Proteus morgani 179; 0.8 µg/mL with Proteus morgani 179 (sodium salt hydrate); 1.6 µg/mL in the assay on Entero aerog. ATCC 13048; 0.8 µg/mL with Entero aerog. ATCC 13048 (sodium salt hydrate). The MIC in the assay on Entero. cloacae HH 31254 and with Proteus mirabilis 444 was 0.8 µg/mL each time. Moreover, the median effective dose (ED50) with E. coli 12140 (Escherichia coli, 12140, sc) is 0.39 mg/kg; with Kleb. pneumo. 4200 (Mus musculus), 2.44 mg/kg.

Values taken from patent US4101656A, “7β-Acylamino-3-(alkanesulfonamidoalkyl substituted tetrazolylthiomethyl) cephalosporins, antibacterial compositions containing them and methods of treating bacterial infections with them” (Smithkline Corporation, priority 1976, dated 1978).
